Reference: the NIST ThermoML archive (doi:10.1016/j.tca.2006.02.028)
Numbers after ± are expanded uncertainties.

Test: excess molar enthalpy (molar enthalpy of mixing); xn = mol fraction of the nth substance listed
Settings: 298.15 K, 101 kPa, Liquid, Titration calorimetry

CO [methanol] + O
excess molar enthalpy (x1 = 0.05): -0.0779 ± 0.000956 kcal/mol | excess molar enthalpy (x1 = 0.1): -0.131 ± 0.00167 kcal/mol | excess molar enthalpy (x1 = 0.15): -0.171 ± 0.00191 kcal/mol | excess molar enthalpy (x1 = 0.2): -0.193 ± 0.00215 kcal/mol | excess molar enthalpy (x1 = 0.3): -0.203 ± 0.00239 kcal/mol | excess molar enthalpy (x1 = 0.4): -0.201 ± 0.00215 kcal/mol | excess molar enthalpy (x1 = 0.5): -0.186 ± 0.00215 kcal/mol | excess molar enthalpy (x1 = 0.6): -0.163 ± 0.00191 kcal/mol | excess molar enthalpy (x1 = 0.7): -0.139 ± 0.00167 kcal/mol | excess molar enthalpy (x1 = 0.8): -0.0985 ± 0.0012 kcal/mol | excess molar enthalpy (x1 = 0.9): -0.0576 ± 0.000717 kcal/mol | excess molar enthalpy (x1 = 1): 0 ± 0.000239 kcal/mol

O [water] + CO
excess molar enthalpy (x2 = 0): 0 ± 0.000239 kcal/mol
